Patent US11858958B2, “Blank liposome with ginsenoside Rg3 or its analog as membrane materials and preparations and uses thereof” (Shanghai Ginsome Pharmatech Co., Ltd., priority 2018, dated 2024)

Tests used:
[1] = tested on: rat C6 glioma cells; test: In vitro drug efficiency assay, survival rate of glioma cells; type: cell-based; settings: 72 h
Source text: (§1) For each concentration group, 4 replicates were set up. The whole experiment was independently repeated 3 times.
The survival rate of rat glioma C6 cells with addition of Rg3 group, Rg3-blank group, PTX group, PTX+Rg3 group, PTX-Cho-Lipo group and PTX-Rg3-Gipo group at various concentrations respectively are listed in Table 11 and FIG. 12.

[2] = tested on: in-situ glioma model (C6 cells); test: Survival curve and median survival day; type: in vivo, nude mice
[3] = tested on: human gastric cancer cells (BGC-823); test: In vitro cell viability assay; type: cell-based; set-up: unit not given here
Source text: as §1

[4] = tested on: rat C6 glioma cells; test: In vitro drug efficiency assay, survival rate of glioma cells; type: cell-based; settings: rat, 72 h
[5] = tested on: human breast cancer cell line (4T1); test: In vitro drug efficacy assay, cell survival rate (Rh2/PTX groups)
Protocol: Logarithmically growing tumor cells were collected and resuspended in DMEM complete medium supplemented with 10% fetal bovine serum, 100 U/ml penicillin and 100 μg/ml streptomycin to a final cell density of 4×10^4 cells/ml. Then, 200 μl cell suspension solution was seeded into each well of a 96-well plate (with a concentration of 8×10^3 cells/well) and the plate was cultured in a CO2 cell culture incubator at 37° C. […] The group without replacing DMEM complete medium by anti-cancer drug solution was used as negative control. For each concentration group, 4 replicates were set up. The whole experiment was independently repeated 3 times. The cells were continuously cultured in a CO2 cell culture incubator at 37° C. […] Then discarded the supernatant, added 150 μl DMSO into each well, and shaked the plate for 10 min. The absorbance was measured at 490 nm using a microplate reader (Tecan infinite M 200 TECAN, Switzerland). The cell survival rate is calculated according to the following formula:

## CC(=O)O[C@H]1C(=O)[C@@]2(C)[C@H]([C@H](OC(=O)c3ccccc3)[C@]3(O)C[C@H](OC(=O)[C@H](O)[C@@H](NC(=O)c4ccccc4)c4ccccc4)C(C)=C1C3(C)C)[C@]1(OC(C)=O)CO[C@@H]1C[C@@H]2O [PTX, paclitaxel]
[1]; 0.0046 μg/ml
  Cell Viability: 73.2867
[1]; 0.0412 μg/ml
  Cell Viability: 60.49
[1]; 0.1235 μg/ml
  Cell Viability: 49.91
[1]; 0.37 μg/ml
  Cell Viability: 45.98
[1]; 1.111 μg/ml
  Cell Viability: 43.89
[1]; 3.333 μg/ml
  Cell Viability: 43.21
[2]; tail vein 10 mg·kg^−1
  Median survial: 27 days
[2]; tail vein 10 mg·kg^−1, Time 12 d
  number of survived mice: 10
[2]; tail vein 10 mg·kg^−1, Time 14 d
  number of survived mice: 10
[2]; tail vein 10 mg·kg^−1, Time 16 d
  number of survived mice: 9
[2]; tail vein 10 mg·kg^−1, Time 18 d
  number of survived mice: 8
[2]; tail vein 10 mg·kg^−1, Time 20 d
  number of survived mice: 7
[2]; tail vein 10 mg·kg^−1, Time 22 d
  number of survived mice: 6
[2]; tail vein 10 mg·kg^−1, Time 24 d
  number of survived mice: 6
[2]; tail vein 10 mg·kg^−1, Time 26 d
  number of survived mice: 5
[2]; tail vein 10 mg·kg^−1, Time 28 d
  number of survived mice: 4
[2]; tail vein 10 mg·kg^−1, Time 30 d
  number of survived mice: 4
[2]; tail vein 10 mg·kg^−1, Time 32 d
  number of survived mice: 4
[2]; tail vein 10 mg·kg^−1, Time 34 d
  number of survived mice: 3
[2]; tail vein 10 mg·kg^−1, Time 36 d
  number of survived mice: 1
[2]; tail vein 10 mg·kg^−1, Time 38 d
  number of survived mice: 1
[2]; tail vein 10 mg·kg^−1, Time 40 d
  number of survived mice: 0
[2]; tail vein 10 mg·kg^−1, Time 42 d
  number of survived mice: 0
[2]; tail vein 10 mg·kg^−1, Time 44 d
  number of survived mice: 0
[2]; tail vein 10 mg·kg^−1, Time 46 d
  number of survived mice: 0
[2]; tail vein 10 mg·kg^−1, Time 48 d
  number of survived mice: 0
[2]; tail vein 10 mg·kg^−1, Time 50 d
  number of survived mice: 0
[2]; tail vein 10 mg·kg^−1, Time 52 d
  number of survived mice: 0
[2]; tail vein 10 mg·kg^−1, Time 54 d
  number of survived mice: 0
[2]; tail vein 10 mg·kg^−1, Time 56 d
  number of survived mice: 0
[2]; tail vein 10 mg·kg^−1, Time 58 d
  number of survived mice: 0
[2]; tail vein 10 mg·kg^−1, Time 60 d
  number of survived mice: 0
[2]; tail vein 10 mg·kg^−1, Time 62 d
  number of survived mice: 0
[3]; listed as 1 of 9, PTX series C 0.0027-6 μg/mL ascending (8 levels)
  Cell Viability: 91.9
[3]; listed as 2 of 9, PTX series C 0.0027-6 μg/mL ascending (8 levels)
  Cell Viability: 80.5
[3]; listed as 3 of 9, PTX series C 0.0027-6 μg/mL ascending (8 levels)
  Cell Viability: 60.9
[3]; listed as 4 of 9, PTX series C 0.0027-6 μg/mL ascending (8 levels)
  Cell Viability: 50.3
[3]; listed as 5 of 9, PTX series C 0.0027-6 μg/mL ascending (8 levels)
  Cell Viability: 41.6
[3]; listed as 6 of 9, PTX series C 0.0027-6 μg/mL ascending (8 levels)
  Cell Viability: 42.7
[3]; listed as 7 of 9, PTX series C 0.0027-6 μg/mL ascending (8 levels)
  Cell Viability: 38.0
[3]; listed as 8 of 9, PTX series C 0.0027-6 μg/mL ascending (8 levels)
  Cell Viability: 33.2
[3]; listed as 9 of 9, PTX series C 0.0027-6 μg/mL ascending (8 levels)
  Cell Viability: 32.2
[4]; 0.0005 μg/ml
  Cell Viability: 100
[4]; 0.0015 μg/ml
  Cell Viability: 79.49
[4]; 0.0137 μg/ml
  Cell Viability: 65.36
[4]; 10 μg/ml
  Cell Viability: 39.59
[5]; 4T1, C 0.00091 μM
  Cell Viability: 106.72
[5]; 4T1, C 0.00274 μM
  Cell Viability: 94.70
[5]; 4T1, C 0.00823 μM
  Cell Viability: 59.19
[5]; 4T1, C 0.02469 μM
  Cell Viability: 55.83
[5]; 4T1, C 0.07407 μM
  Cell Viability: 49.25
[5]; 4T1, C 0.22222 μM
  Cell Viability: 48.48
[5]; 4T1, C 0.66667 μM
  Cell Viability: 48.54
[5]; 4T1, C 2.00000 μM
  Cell Viability: 52.00
